In patent US20010036955A1, “Method of inhibiting angiogenesis” (Genentech, Inc., priority 1998, published 2001):

Tests used:
[1] = test system: HUVEC tube formation; assay: Endothelial tube assay of Example 7 (average tube length, 3-D type I collagen gels); format: cell-based, human; conditions: 10 μM; 24 h; 3-D collagen gels
Experimental: Collagen gels were formed by mixing together ice-cold gelation solution (IOX M199, H2O, 0.53M NaHCO3, 200 mM L-glutamine, type I collagen, 0.1M NaOH, 100:27.2:50:10:750:62.5 by volume) and cells in 1× basal medium (see below) at a concentration of 3×10^6 cells/ml at a ratio of 4 volumes gelation solution: 1 volume of cells (18). After gelation at 37° C. for 30 min, the gels were overlaid with 1× basal medium consisting of M199 supplemented with […], 1× ITS, 2 mM L-glutamine, […] ascorbic acid, 26.5 mM NaHCO3, 100 U/ml penicillin and 100 U/ml streptomycin supplemented with 40 ng/ml bFGF, 40 ng/ml VEGF, 80 nM PMA or the combination of PMA (80 nM), bFGF and VEGF (40 ng/ml each). All drugs were added to the 1× basal medium immediately after gelation. To quantify tube formation, the average tube length was determined by measuring total tube length (long axis) in three consecutive layers of a low power (10×) field using Openlab software (Improvision Inc, England). Each layer was separated by 100 μm.

[2] = test system: HUVEC tube formation; assay: Endothelial tube assay (number of tubes, three-dimensional collagen gels); format: cell-based, human
Experimental: In this model, endothelial cells are suspended in a three-dimensional collagen lattice of type I collagen and undergo rapid morphogenesis. Within 4 hr numerous vacuoles are observed in the majority of endothelial cells; at 24 hr the formation of tube-like structures can be observed and at 48 hr an interconnected network of tube-like structures is observed.
Collagen gels were formed by mixing together ice-cold gelatin solution (10× M199, H2O, 0.53M NaHCO3, 200 mM L-glutamine, type I collagen, 0.1M NaOH, 100:27.2:50:10:750:62.5 by volume) and cells in 1× basal medium at a concentration of 3×10^6 cells/ml at a ratio of 4 volumes gelatin solution: 1 volume of cells. After gelation at 37 for 30 min, the gels were overlaid with IX basal medium consisting of M199 supplemented with 1%FBS, 1× ITS, 2 mM L-glutamine, 50 μg/ml ascorbic acid, 26.5 mM NaHCO3, 100 U/ml penicillin and 100 U/mil streptomycin supplemented with 40 ng/ml BFGF, 40 ng/ml VEGF and 80 nM phorbol myristate acetate (PMA). All drugs were added to the IX basal medium immediately after gelation. To quantitate tube formation, the number of tubes per high power (20× field) was determined 48 hr after addition of the basal medium Five independent fields separated by 100 μm optical sections were assessed for each well. Cytotoxicity was assessed using an XTT kit from Boehringer Mannheim (Indianapolis, Ind.).

[3] = test system: VEGF-stimulated angiogenesis in rat cornea; assay: Corneal angiogenesis assay (Hydron pellet with VEGF); format: in vivo, Sprague-Dawley rats
Experimental: A 1.5 mm incision was made approximately 1 mm from the center of the cornea of isoflurane-ketamine (60-80 mg/kg) xylazine (10-15 mg/kg) anesthetized Sprague-Dawley rats. Using a curved spatula, the incision was bluntly dissected through the stroma towards the outer canthus of the eye. A Hydron pellet […] containing VEGF (200 ng), sucralfate (100 μg) with or without (control) 15d-PGJ2 (10 μg/pellet) was inserted into the base of the pocket. After surgery, the eyes were coated with gentamicin ointment. Animals are observed at 24-48 hr for the occurrence of nonspecific inflammation and then daily thereafter. At day 6, the animals were euthanized and injected with FITC-dextran to allow for visualization of the vasculature. Corneal whole mounts were made of the enucleated eyes and analyzed for neovascular area using the computer assisted image analysis.

[4] = test system: HUVEC proliferation; assay: Proliferation assay (BrdU incorporation); format: cell-based, human; conditions: type I collagen-coated surface, VEGF, bFGF and PMA, read-out: inhibition of endothelial cell (HUVEC) proliferation, IC50
Experimental: Cells were cultured in above medium in the presence of drugs or vehicle for 4 hr. 5 μl (100 μM) of 5′-bromo-2′-deoxyuridine (BrdU) was added in a final volume of 100 μl/well and cells were incubated for another 20 hr. BrdU incorporation was evaluated by an ELISA kit from Boehringer Mannheim (Indianapolis, Ind.).

[5] = test system: MMP-9 mRNA; assay: Real time RT-PCR (Taqman) assay in HUVEC, Example 7; format: cell-based, human; conditions: 10 μM; 24 h; PMA or PMA with bFGF and VEGF
Experimental: (§1) Total RNA was extracted from HUVEC cultured in 3-D type I collagen gels for various times in 1× basal medium supplemented with 40 ng/ml bFGF, 40 ng/ml VEGF, […] PMA or the combination of PMA (80 nM), bFGF and VEGF (40 ng/mil each). […] For all mRNAs evaluated a sample of total RNA (100 ng) was added to a 50 μl RT-PCR reaction mixture according to the manufacturer's protocol (Roche Molecular Systems, Inc., Branchburg, N.J.). The thermal cycling conditions included 1 cycle at 48° C. for 30 min, 1 cycle at 95° C. for 10 min, 40 cycles at 95° C. for 15 s, at 60° C. for 1 min, and finally hold at 25° C. for 2 min. Standard curves for expression of each gene were generated by serial dilution of the total RNA isolated from U937 cells. […] Therefore, the relative mRNA expression of each gene was normalized to the level of GAPDH in the same RNA preparation.

[6] = test system: MMP-2 mRNA; assay: as above; format: cell-based, human; conditions: 10 μM; 24 h; PMA or PMA with bFGF and VEGF
Experimental: as §1

[7] = test system: TIMP-1 mRNA; assay: as above; format: cell-based, human; conditions: 10 μM; bFGF, VEGF and PMA; at 4 h or 24 h
Experimental: as §1

[8] = test system: TIMP-2 mRNA; assay: as above; format: cell-based, human; conditions: 10 μM; bFGF, VEGF and PMA; at 4 h
Experimental: as §1

[9] = test system: MMP-3 mRNA; assay: as above; format: cell-based, human
Experimental: as §1

CCCCC/C=C/C=C1/C(=O)C=CC1C/C=C\CCCC(=O)O (stereo not drawn) [15d-PGJ2, 15-deoxy-delta^12,14-PGJ2]
PMA or PMA in combination with bFGF and VEGF induced HUVEC tube formation [1]: blocked | effect on tube formation (FIG. 1B) ([2]; 10 μM, 48 hr): inhibitory effects | IC50 ([2]; HUVEC in collagen gels with bFGF, VEGF and PMA, tubes counted at 48 hr, read-out: inhibition of tube formation, IC50): 2800 nM | area of new vessels (FIG. 4C) ([3]; 200 ng/pellet VEGF and 10 μg/ml 15d-PGJ2, day 6 postimplantation, p<0.05, Mann-Whitney): significantly different from VEGF alone group | vessel length compared to VEGF only (positive) controls ([3]; Hydron pellet, 200 ng VEGF with 10 μg 15d-PGJ2, rat cornea): significant reduction | IC50 [4]: 2400 nM | MMP-9 mRNA levels [5]: significant suppression | MMP-2 mRNA levels [6]: significant suppression | expression of TIMP-1 [7]: did not increase | TIMP-2 mRNA levels compared to the vehicle treated group [8]: reduced | MMP-3 mRNA levels ([9]; HUVEC cultured with combination of bFGF, VEGF and PMA at 24 h): increased | MMP-3 mRNA expression ([9]; PMA-treated group): no effect
